Measured values as given in US9453014B2, “Cyclic amide derivatives as inhibitors of 11-β-hydroxysteroid dehydrogenase and uses thereof” (CONNEXIOS LIFE SCIENCES PVT. LTD., priority 2011, dated 2016).

Key:
[1] = molecular target: T1, human full length HSD11 β 1 (Homo sapiens, UniProt P28845); test: In Vitro HSD11β1 Inhibition Assay; format: cell-based; conditions: CHO cells transiently expressing human HSD11β1; 200 nM cortisone+500 uM NADPH overnight; cortisone to cortisol by LC/MS-MS; read-out: 11βHSD1 (IC50)
T1 construct: transient expression of human full length HSD11 β 1 expression vector; host or cells: CHO cells (transient transfection)
Outline: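 CHO cells transiently transfected with human full-length HSD11β1 were re-seeded after 24 h and, 24 h later, incubated overnight with 200 nM cortisone plus 500 uM NADPH and inhibitor. Cortisone-to-cortisol conversion was measured by LC/MS-MS. IC50 from an 8-point log concentration–inhibition curve.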

[2] = phase IIa trial, type 2 diabetes, 28-days; cited from earlier work

T1 sequence (P28845 whole entry): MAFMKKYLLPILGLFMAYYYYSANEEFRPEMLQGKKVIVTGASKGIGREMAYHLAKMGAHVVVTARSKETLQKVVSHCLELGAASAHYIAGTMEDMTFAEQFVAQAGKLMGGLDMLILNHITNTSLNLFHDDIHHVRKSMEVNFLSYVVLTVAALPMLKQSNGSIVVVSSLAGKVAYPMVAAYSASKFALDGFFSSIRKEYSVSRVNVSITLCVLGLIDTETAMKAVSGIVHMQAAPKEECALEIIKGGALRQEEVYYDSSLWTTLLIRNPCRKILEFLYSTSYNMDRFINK

IC50 [1] | Compound | safety and tolerability [2]
< 100 nM | O=C(O)C1CCC2C(CCCN2C(=O)CC(c2ccccc2)c2c[nH]c3cccc(F)c23)C1 (stereo not shown) [Example 186, 1-[3-(4-fluoro-1H-indol-3-yl)-3-phenylpropanoyl]decahydroquinoline-6-carboxylic acid] | 
> 250 nM | CCC(CC(=O)N1CCC(C(=O)O)C2CCCCC21)c1c[nH]c2cccc(Cl)c12 (stereo not shown) [Example 187, 1-[3-(4-chloro-1H-indol-3-yl)pentanoyl]decahydroquinoline-4-carboxylic acid] | 
< 100 nM | O=C(O)C1CCCC2C1CCCN2C(=O)CC(c1ccccc1)c1c[nH]c2cccc(F)c12 (stereo not shown) [Example 188, 1-[3-(4-fluoro-1H-indol-3-yl)-3-phenylpropanoyl]decahydroquinoline-5-carboxylic acid] | 
 | CNC(=O)c1ccc(-c2ccc(C3(C(=O)N4CC[C@@]5(C4)OC(=O)c4ccccc45)CC3)cc2)cn1 [INCB13739] | safe and well tolerated without any serious side effects and hypoglycemia
